Values joined by “and” are separate entries in the source; they are usually repeats but may differ in a detail not shown here. Equal values may be shown once.
Columns and labels:
pSTAT3 = assay: Immunohistochemistry of end-point KPC tumors: STAT3 activation; type: in vivo, mouse; conditions: for Quantification of STAT3 activation (pSTAT3 positive nuclear staining): Extended Data 6F, KPC tumours at endpoint, individual FOV
Procedure: All tissues or matrices, including patient TMAs, were fixed in 10% buffered formalin and embedded in paraffin. The 4-μm sections of samples were deparaffinized with xylene and rehydrated in graded ethanol washes. For immunohistochemistry, Bond Dewax Solution (AR9222) was used. Antigen retrieval was performed using Bond RX H2(30) protocol: HIER 30 min ER1 (citrate pH 6) OR ER2 (EDTA pH 9) at 100 °C. Slides were quenched in BOND Polymer Refine Detection (Leica Biosystems DS9800). […] Slides were digitized on an Aperio slide scanner and representative areas per tumor acquired and analyzed by researchers blinded to the conditions of the experiment.
Extended Data Fig. 6 PXS-5505 in combination with gemcitabine in a KPC model. a. Quantification of proliferating cells (Ki67 positive nuclear staining) in KPC tumors at end point, treated as indicated. 5 fields of view (500 μm × 500 μm) per mouse and 10 mice per cohort were scored. […] Quantification of percent coverage of αSMA positive staining in KPC tumors at end point, treated as indicated. 3 fields of view (1000 μm × 1000 μm) per mouse and 10 mice per cohort were scored. […] Quantification of percent coverage of PDGFR-ß positive staining in KPC tumors at end point, treated as indicated. 3 fields of view (1000 μm × 1000 μm) per mouse and 10 mice per cohort were scored. […] Quantification of pMLC2 positive staining in stromal regions of KPC tumors at end point, treated as indicated. 3 fields of view (500 μm × 500 μm) per mouse and 10 mice per cohort were scored. […] Quantification of tumor vasculature (CD31 positive staining) in KPC tumors at end point, treated as indicated. 3 fields of view (1000 μm × 1000 μm) per mouse and 10 mice per cohort were scored. […] Quantification of STAT3 activation (pSTAT3 positive nuclear staining) in KPC tumors at end point, treated as indicated. 3 fields of view (1000 μm × 1000 μm) per mouse and 5 mice per cohort were scored. […] Scale bars = 100 μm. g Quantification of macrophage infiltration (F4/80 positive staining) in KPC tumors at end point, treated as indicated. […]

KPC PDAC tumors = assay: Necrosis determined by H&E in end-point KPC tumors; type: in vivo; conditions: KPC tumours at endpoint; one value per mouse, 8 mice per cohort scored (Extended Data 6J)
Procedure: All tissues or matrices were fixed in 10% buffered formalin and embedded in paraffin. The 4-μm sections of samples were deparaffinized with xylene and rehydrated in graded ethanol washes. H&E staining and counterstaining were performed on a Leica autostainer.
Extended Data Fig. 6 PXS-5505 in combination with gemcitabine in a KPC model. a. Quantification of proliferating cells (Ki67 positive nuclear staining) in KPC tumors at end point, treated as indicated. 5 fields of view (500 μm × 500 μm) per mouse and 10 mice per cohort were scored. […] Scale bars = 100 μm b. Quantification of percent coverage of αSMA positive staining in KPC tumors at end point, treated as indicated. 3 fields of view (1000 μm × 1000 μm) per mouse and 10 mice per cohort were scored. […] Scale bars = 100 μm c. Quantification of percent coverage of PDGFR-ß positive staining in KPC tumors at end point, treated as indicated. 3 fields of view (1000 μm × 1000 μm) per mouse and 10 mice per cohort were scored. […] Scale bars = 100 μm d. Quantification of pMLC2 positive staining in stromal regions of KPC tumors at end point, treated as indicated. 3 fields of view (500 μm × 500 μm) per mouse and 10 mice per cohort were scored. […] Quantification of tumor vasculature (CD31 positive staining) in KPC tumors at end point, treated as indicated. 3 fields of view (1000 μm × 1000 μm) per mouse and 10 mice per cohort were scored. […]

| Structure (SMILES) | Quantification of STAT3 activation (pSTAT3 positive nuclear staining) (pSTAT3) | pSTAT3-positive nuclear staining (pSTAT3; KPC tumors at end point) | necrosis determined by H&E (KPC PDAC tumors) |
| --- | --- | --- | --- |
| Nc1ccn([C@@H]2O[C@H](CO)[C@@H](O)C2(F)F)c(=O)n1 [Gem, gemcitabine] | 1.773 and 0.7075 and 2.095 and 2.515 and 2.91 and 1.454 and 7.421 and 2.089 and 1.705 and 5.289 and 6.71 and 3.256 and 6.948 and 7.388 and 6.1144 | significantly increased levels of pSTAT3-positive staining | 0 and 7.986 and 6.976 and 4.928 |
| Cl.Cl.NC/C=C(\F)CS(=O)(=O)c1cccc2cccnc12.O [PXS-5505, (Z)-3-fluoro-4-(quinolin-8-ylsulfonyl)but-2-en-1-amine dihydrochloride monohydrate] | 2.225 and 1.368 and 3.504 and 0.042 and 0 (2×) and 3.991 and 1.153 and 0.6262 and 11.8493 and 3.81 and 4.532 and 0.05376 | – | 0 and 2.201 and 15.496 and 22.429 and 2.215 |

Reference: PMC10518255, “A first-in-class pan-lysyl oxidase inhibitor impairs stromal remodeling and enhances gemcitabine response and survival in pancreatic cancer” (Nature Cancer, 2023)
